Data: patent publication US9708314B2, “Heterocyclic amide compound” (NISSAN CHEMICAL INDUSTRIES, LTD., priority 2013, dated 2017)

Key:
Assay type in all cases: in vivo
Cyperus difformis = test: Test Example 3: herbicidal effect by application to foliage (Wagner pot, water depth 0.1-0.5 cm); conditions: Nineteenth Table, application herbicide amount 320 g/ha; for E (herbicidal effect grade): application to foliage
How it was run: (§1)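 Greenhouse pot test, 25–30 °C, alluvial soil. Sown seedlings grown 14 days then sprayed on leaves and stems with emulsion diluted to target g/ha. Rating at 3 weeks, 0–5 scale (0 ≤5%, 5 ≥90%).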

[1] = system: Echinochloa crus-galli var. crus-galli; test: as above; conditions: Nineteenth Table, application herbicide amount 320 g/ha; for H (herbicidal effect grade): application to foliage
How it was run: as §1

Leptochloa chinensis = test: as above; conditions: Nineteenth Table, application herbicide amount 320 g/ha; for D (herbicidal effect grade): application to foliage
How it was run: as §1

Abutilon theophrasti = test: Test Example 4: herbicidal effect by application to foliage (diluvial soil, plastic box); conditions: for M: Application herbicide amount 320 g/ha; for M (Abutilon theophrasti) herbicidal effect: application to foliage, application herbicide amount 320 g/ha
How it was run: (§2)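 Emulsion-formulated compound, diluted to a predetermined g/ha dose, applied by small sprayer to leaves and stems of 14-day-old seedlings grown in sterilized diluvial soil. Effect rated on 0–5 herbicidal-ratio scale three weeks on.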

Alopecurus myosuroides = test: as above; conditions: for J: Application herbicide amount 320 g/ha; for J (Alopecurus myosuroides) herbicidal effect: application to foliage, application herbicide amount 320 g/ha
How it was run: as §2

Apera spica-venti. = test: as above; conditions: for L: Application herbicide amount 320 g/ha; for L (Apera spica-venti.) herbicidal effect: application to foliage, application herbicide amount 320 g/ha
How it was run: as §2

Avena fatua = test: as above; conditions: for I: Application herbicide amount 320 g/ha; for I (Avena fatua) herbicidal effect: application to foliage, application herbicide amount 320 g/ha
How it was run: as §2

Chenopodium album = test: as above; conditions: for O: Application herbicide amount 320 g/ha; for O (Chenopodium album) herbicidal effect: application to foliage, application herbicide amount 320 g/ha
How it was run: as §2

Digitaria ciliaris = test: as above; conditions: for F: Application herbicide amount 320 g/ha; for F (Digitaria ciliaris) herbicidal effect: application to foliage, application herbicide amount 320 g/ha
How it was run: as §2

[2] = system: Echinochloa crus-galli var. crus-galli; test: as above; conditions: for H: Application herbicide amount 320 g/ha; for H (Echinochloa crus-galli var. crus-galli) herbicidal effect: application to foliage, application herbicide amount 320 g/ha
How it was run: as §2

Galium spurium = test: as above; conditions: for Q: Application herbicide amount 320 g/ha; for Q (Galium spurium) herbicidal effect: application to foliage, application herbicide amount 320 g/ha
How it was run: as §2

Lolium multiflorum Lam. = test: as above; conditions: for K: Application herbicide amount 320 g/ha; for K (Lolium multiflorum Lam.) herbicidal effect: application to foliage, application herbicide amount 320 g/ha
How it was run: as §2

Setaria viridis = test: as above; conditions: for G: Application herbicide amount 320 g/ha; for G (Setaria viridis) herbicidal effect: application to foliage, application herbicide amount 320 g/ha
How it was run: as §2

Veronica persica = test: as above; conditions: for R: Application herbicide amount 320 g/ha; for R (Veronica persica) herbicidal effect: application to foliage, application herbicide amount 320 g/ha
How it was run: as §2

Structure (SMILES) | E (herbicidal effect grade) (Cyperus difformis) | H (herbicidal effect grade) [1] | D (herbicidal effect grade) (Leptochloa chinensis) | M (Abutilon theophrasti) | J (Alopecurus myosuroides) | L (Apera spica-venti.) | E (Cyperus difformis) herbicidal ratio grade (Cyperus difformis) | H (Echinochloa crus-galli var. crus-galli) herbicidal ratio grade [1] | D (Leptochloa chinensis) herbicidal ratio grade (Leptochloa chinensis) | M (Abutilon theophrasti) herbicidal effect (Abutilon theophrasti) | J (Alopecurus myosuroides) herbicidal effect (Alopecurus myosuroides) | L (Apera spica-venti.) herbicidal effect (Apera spica-venti.) | I (Avena fatua) herbicidal effect (Avena fatua) | O (Chenopodium album) herbicidal effect (Chenopodium album) | F (Digitaria ciliaris) herbicidal effect (Digitaria ciliaris) | H (Echinochloa crus-galli var. crus-galli) herbicidal effect [2] | Q (Galium spurium) herbicidal effect (Galium spurium) | K (Lolium multiflorum Lam.) herbicidal effect (Lolium multiflorum Lam.) | G (Setaria viridis) herbicidal effect (Setaria viridis) | R (Veronica persica) herbicidal effect (Veronica persica) | also measured
C#CC[S+]([O-])c1nnc2c(C(=O)Nc3nnc(C)o3)ccc(C(F)(F)F)n12 (stereo not shown) [1-077] | 3 (Herbicidal ratio of 40% or more and less than 70%) | 5 (Herbicidal ratio of 90% or more (almost completely withered)) | 4 (Herbicidal ratio of 70% or more and less than 90%) | 2 (Herbicidal ratio of 20% or more and less than 40%) | 0 (Herbicidal ratio of 5% or less (almost no effect)) | 0 (Herbicidal ratio of 5% or less (almost no effect)) |  |  |  |  |  |  |  |  |  |  |  |  |  |  | I (Avena fatua): 0 (Herbicidal ratio of 5% or less (almost no effect)); O (Chenopodium album): 5 (Herbicidal ratio of 90% or more (almost completely withered)); F (Digitaria ciliaris): 4 (Herbicidal ratio of 70% or more and less than 90%); H [2]: 4 (Herbicidal ratio of 70% or more and less than 90%); Q (Galium spurium): 1 (Herbicidal ratio of 5% or more and less than 20%); K (Lolium multiflorum Lam.): 0 (Herbicidal ratio of 5% or less (almost no effect)); G (Setaria viridis): 2 (Herbicidal ratio of 20% or more and less than 40%); R (Veronica persica): 3 (Herbicidal ratio of 40% or more and less than 70%)
CCCc1nnc2c(C(=O)Nc3nnc(C)o3)ccc(C(F)(F)F)n12 [1-024] |  |  |  |  |  |  | 4 (Herbicidal ratio of 70% or more and less than 90%) | 5 (Herbicidal ratio of 90% or more (almost completely withered)) | 4 (Herbicidal ratio of 70% or more and less than 90%) | 4 (Herbicidal ratio of 70% or more and less than 90%) | 0 (Herbicidal ratio of 5% or less (almost no effect)) | 1 (Herbicidal ratio of 5% or more and less than 20%) | 1 (Herbicidal ratio of 5% or more and less than 20%) | 5 (Herbicidal ratio of 90% or more (almost completely withered)) | 4 (Herbicidal ratio of 70% or more and less than 90%) | 4 (Herbicidal ratio of 70% or more and less than 90%) | 3 (Herbicidal ratio of 40% or more and less than 70%) | 0 (Herbicidal ratio of 5% or less (almost no effect)) | 3 (Herbicidal ratio of 40% or more and less than 70%) | 4 (Herbicidal ratio of 70% or more and less than 90%) | 
Cc1nnc(NC(=O)c2ccc(C(F)(F)F)n3c(N4CCOCC4)nnc23)o1 [1-096] | 4 (Herbicidal ratio of 70% or more and less than 90%) | 5 (Herbicidal ratio of 90% or more (almost completely withered)) | 5 (Herbicidal ratio of 90% or more (almost completely withered)) | 4 (Herbicidal ratio of 70% or more and less than 90%) | 1 (Herbicidal ratio of 5% or more and less than 20%) | 3 (Herbicidal ratio of 40% or more and less than 70%) |  |  |  |  |  |  |  |  |  |  |  |  |  |  | I (Avena fatua): 2 (Herbicidal ratio of 20% or more and less than 40%); O (Chenopodium album): 5 (Herbicidal ratio of 90% or more (almost completely withered)); F (Digitaria ciliaris): 5 (Herbicidal ratio of 90% or more (almost completely withered)); H [2]: 5 (Herbicidal ratio of 90% or more (almost completely withered)); Q (Galium spurium): 4 (Herbicidal ratio of 70% or more and less than 90%); K (Lolium multiflorum Lam.): 2 (Herbicidal ratio of 20% or more and less than 40%); G (Setaria viridis): 5 (Herbicidal ratio of 90% or more (almost completely withered)); R (Veronica persica): 5 (Herbicidal ratio of 90% or more (almost completely withered))
CC(C)c1nnc2c(C(=O)Nc3nnc(C4CC4)o3)ccc(C(F)(F)F)n12 [1-051] |  |  |  |  |  |  | 4 (Herbicidal ratio of 70% or more and less than 90%) | 4 (Herbicidal ratio of 70% or more and less than 90%) | 5 (Herbicidal ratio of 90% or more (almost completely withered)) | 5 (Herbicidal ratio of 90% or more (almost completely withered)) | 0 (Herbicidal ratio of 5% or less (almost no effect)) | 1 (Herbicidal ratio of 5% or more and less than 20%) | 1 (Herbicidal ratio of 5% or more and less than 20%) | 5 (Herbicidal ratio of 90% or more (almost completely withered)) | 3 (Herbicidal ratio of 40% or more and less than 70%) | 4 (Herbicidal ratio of 70% or more and less than 90%) | 2 (Herbicidal ratio of 20% or more and less than 40%) | 1 (Herbicidal ratio of 5% or more and less than 20%) | 3 (Herbicidal ratio of 40% or more and less than 70%) | 3 (Herbicidal ratio of 40% or more and less than 70%) | 
Cc1nnc(NC(=O)c2ccc(C(F)(F)F)n3c(C[S+](C)[O-])nnc23)o1 (stereo not shown) [1-036] |  |  |  |  |  |  | 5 (Herbicidal ratio of 90% or more (almost completely withered)) | 5 (Herbicidal ratio of 90% or more (almost completely withered)) | 5 (Herbicidal ratio of 90% or more (almost completely withered)) | 5 (Herbicidal ratio of 90% or more (almost completely withered)) | 3 (Herbicidal ratio of 40% or more and less than 70%) | 4 (Herbicidal ratio of 70% or more and less than 90%) | 4 (Herbicidal ratio of 70% or more and less than 90%) | 5 (Herbicidal ratio of 90% or more (almost completely withered)) | 5 (Herbicidal ratio of 90% or more (almost completely withered)) | 5 (Herbicidal ratio of 90% or more (almost completely withered)) | 4 (Herbicidal ratio of 70% or more and less than 90%) | 3 (Herbicidal ratio of 40% or more and less than 70%) | 5 (Herbicidal ratio of 90% or more (almost completely withered)) | 5 (Herbicidal ratio of 90% or more (almost completely withered)) | 
